In US20080227655A1, “Assessment of effect of an agent on a human biological condition using rodent gene expression panels” (priority 2006, published 2008):
Values joined by “and” are separate entries in the source; they are usually repeats but may differ in a detail not shown here. Equal values may be shown once.

Tested on: custom murine 40-gene Precision Profile for Rheumatoid Arthritis, whole blood
Assay: KRN (K/BxN) serum transfer induced arthritis model, whole blood gene expression by QPCR, vehicle or dexamethasone treatment
Assay type: in vivo, female BALB/c mice
Experimental: Whole blood gene expression changes were evaluated in vehicle control and drug-treated murine subjects across two murine models of arthritis according to the following arthritis models:
KRN Transgenic Mouse (K/B×N): K/B×N serum from transgenic mouse used to induce arthritis in female BALB/c mice (n=54). Collagen Induced Arthritis (CIA): Bovine type II collagen used to induce arthritis in male DBA/1 mice (n=54).
In addition, naïve, untreated animal groups at baseline and terminal day were included to control for potential age-related changes in gene expression over the extended study periods. Animal groups, time-points, and treatment schedules are summarized in Tables 20A and 20B, respectively.
Whole blood samples from animals were collected by retro-orbital bleed at selected time-points in accordance with the arthritis study schemas described in […], and transferred into sample collection tubes containing a 1.5× lysis solution and RPMI. Samples were processed into total RNA and cDNA. […] It was anticipated from these murine models would provide a better understanding of the relevant molecular response of arthritis induction and their potential correlation to the human disease condition.
Normal murine subject reference values (represented as normalized Ct or ΔCt values) were established for male DBA/1 mice (n=6 for the CIA study arm) and female BALB/c mice (n=6 for the KRN study arm). In both arms of the study, gene expression response of normal (naïve, non-immunized and untreated) murine subjects were evaluated in groups of 6 each at day 0 and day 60 for the CIA study arm, and at day 0 and day 21 for the KRN study arm (see Tables 20A and 20B).
Gene expression responses for the arthritis-induced murine model were evaluated for untreated mice at day 3 and vehicle-treated mice at days 7, 14 and 21 to characterize disease progression.

[1] = KRN Day 7, Dex-treated, group Average
[2] = KRN Day 7, Dex-treated, individual murine subject, listed as Dex
[3] = KRN Day 7 Dex, group Average, whole blood
[4] = KRN Day 7 Dex, individual mouse, whole blood, listed as Dex
[5] = KRN Day 14, Dex-treated, group Average
[6] = KRN Day 14, Dex-treated, individual murine subject

SMILES: C[C@@H]1C[C@H]2[C@@H]3CCC4=CC(=O)C=C[C@]4(C)[C@@]3(F)[C@@H](O)C[C@]2(C)[C@@]1(O)C(=O)CO [Dexamethasone]
- Normalized CT Value (Delta CT) IL1RAP_M [1]: 18.33
- Normalized CT Value (Delta CT) IL1RN—M [1]: 17.22
- Normalized CT Value (Delta CT) IL6_M [1]: 25.38
- Normalized CT Value (Delta CT) JUN_M [1]: 18.89
- Normalized CT Value (Delta CT) MEF2C—M [1]: 18.74
- Normalized CT Value (Delta CT) MMP9—M [1]: 13.84
- Normalized CT Value (Delta CT) NFKB1—M [1]: 15.89
- Normalized CT Value (Delta CT) PADI4—M [1]: 18.34
- Normalized CT Value (Delta CT) PLA2G7—M [1]: 14.34
- Normalized CT Value (Delta CT) PTPRC_M [1]: 13.18
- Normalized CT Value (Delta CT) PTX3_M [1]: 25.34
- Normalized CT Value (Delta CT) SERPINE1_M [1]: 19.43
- Normalized CT Value (Delta CT) TGFB1_M [1]: 14.97
- Normalized CT Value (Delta CT) TIMP1_M [1]: 24.84
- Normalized CT Value (Delta CT) TLR2_M [1]: 17.04
- Normalized CT Value (Delta CT) TLR4_M [1]: 17.74
- Normalized CT Value (Delta CT) TNFSF5—M [1]: 19.10
- Normalized CT Value (Delta CT) TNF_M [1]: 19.04
- Normalized CT Value (Delta CT) VEGF_M [1]: 20.01
- Normalized CT Value (Delta CT) IL1RAP_M [2]: 18.35 and 18.23 and 18.52 and 17.82 and 18.87 and 18.20
- Normalized CT Value (Delta CT) IL1RN—M [2]: 17.09 and 17.55 and 17.42 and 16.65 and 17.60 and 17.00
- Normalized CT Value (Delta CT) IL6_M [2]: 25.25 and 25.61 and 25.41 and 25.23 and 25.30 and 25.45
- Normalized CT Value (Delta CT) JUN_M [2]: 18.66 and 18.44 and 19.15 and 18.37 and 19.81 and 18.91
- Normalized CT Value (Delta CT) MEF2C—M [2]: 19.10 and 17.75 and 19.18 and 18.50 and 19.03 and 18.87
- Normalized CT Value (Delta CT) MMP9—M [2]: 13.85 and 13.83
- Normalized CT Value (Delta CT) NFKB1—M [2]: 16.06 and 14.93 and 16.25 and 15.43 and 16.52 and 16.16
- Normalized CT Value (Delta CT) PADI4—M [2]: 18.44 and 18.48 and 18.77 and 17.63 and 18.63 and 18.10
- Normalized CT Value (Delta CT) PLA2G7—M [2]: 14.36 and 13.77 and 14.74 and 13.71 and 14.94 and 14.53
- Normalized CT Value (Delta CT) PTPRC_M [2]: 13.36 and 12.55 and 13.38 and 12.76 and 13.68 and 13.33
- Normalized CT Value (Delta CT) PTX3_M [2]: 25.27 and 25.26 and 25.48 and 25.42 and 25.11 and 25.50
- Normalized CT Value (Delta CT) SERPINE1_M [2]: 19.43 and 18.99 and 19.66 and 19.03 and 19.81 and 19.67
- Normalized CT Value (Delta CT) TGFB1_M [2]: 15.24 and 14.22 and 15.34 and 14.62 and 15.36 and 15.02
- Normalized CT Value (Delta CT) TIMP1_M [2]: 24.76 and 24.74 and 24.73 and 24.34 and 25.09 and 25.40
- Normalized CT Value (Delta CT) TLR2_M [2]: 17.41 and 16.20 and 17.63 and 16.31 and 17.86 and 16.84
- Normalized CT Value (Delta CT) TLR4_M [2]: 17.64 and 17.44 and 18.32 and 16.84 and 18.23 and 17.96
- Normalized CT Value (Delta CT) TNFSF5—M [2]: 19.49 and 18.16 and 19.15 and 18.68 and 19.51 and 19.59
- Normalized CT Value (Delta CT) TNF_M [2]: 19.01 and 18.04 and 19.79 and 18.91 and 19.32 and 19.14
- Normalized CT Value (Delta CT) VEGF_M [2]: 20.04 and 20.59 and 20.09 and 19.19 and 20.31 and 19.85
- ABCA1_M Normalized CT Value (Delta CT) [3]: 17.55
- APAF1_M Normalized CT Value (Delta CT) [3]: 18.58
- CASP1_M Normalized CT Value (Delta CT) [3]: 17.59
- CASP3_M Normalized CT Value (Delta CT) [3]: 17.32
- CCR3_M Normalized CT Value (Delta CT) [3]: 18.72
- CD3Z_M Normalized CT Value (Delta CT) [3]: 16.52
- CD8A_M Normalized CT Value (Delta CT) [3]: 17.53
- CD14_M Normalized CT Value (Delta CT) [3]: 19.08
- CD86_M Normalized CT Value (Delta CT) [3]: 21.94
- CSPG2_M Normalized CT Value (Delta CT) [3]: 18.69
- F3_M Normalized CT Value (Delta CT) [3]: 22.96
- HMOX1_M Normalized CT Value (Delta CT) [3]: 17.15
- HSPA1A—M Normalized CT Value (Delta CT) [3]: 21.13
- ICAM1—M Normalized CT Value (Delta CT) [3]: 18.39
- IFI16—M Normalized CT Value (Delta CT) [3]: 16.29
- IL1B_M Normalized CT Value (Delta CT) [3]: 13.94
- IL10_M Normalized CT Value (Delta CT) [3]: 25.42
- ABCA1_M Normalized CT Value (Delta CT) [4]: 18.22 and 16.54 and 17.90 and 16.93 and 18.24 and 17.49
- APAF1_M Normalized CT Value (Delta CT) [4]: 18.85 and 18.10 and 18.95 and 18.00 and 19.01 and 18.59
- ARG2_M Normalized CT Value (Delta CT) [4]: 17.02 and 17.06 and 17.28 and 16.20 and 17.35 and 16.48
- CASP1_M Normalized CT Value (Delta CT) [4]: 17.64 and 16.61 and 18.07 and 17.26 and 18.15 and 17.79
- CASP3_M Normalized CT Value (Delta CT) [4]: 17.09 (2×) and 17.18 and 17.10 and 17.91 and 17.54
- CCR3_M Normalized CT Value (Delta CT) [4]: 18.09 and 18.62 and 18.24 and 18.86 and 18.96 and 19.54
- CD3Z_M Normalized CT Value (Delta CT) [4]: 16.64 and 15.65 and 16.81 and 16.13 and 16.77 and 17.10
- CD8A_M Normalized CT Value (Delta CT) [4]: 17.59 and 17.17 and 17.84 and 17.11 and 17.75 and 17.73
- CD14_M Normalized CT Value (Delta CT) [4]: 19.53 and 18.14 and 19.42 and 18.23 and 20.06 and 19.13
- CD86_M Normalized CT Value (Delta CT) [4]: 22.58 and 20.83 and 22.75 and 21.71 and 22.21 and 21.57
- CSPG2_M Normalized CT Value (Delta CT) [4]: 19.41 and 17.60 and 19.56 and 17.94 and 19.13 and 18.51
- F3_M Normalized CT Value (Delta CT) [4]: 22.15 and 23.54 and 24.16 and 21.10 and 25.46 and 21.36
- HMOX1_M Normalized CT Value (Delta CT) [4]: 17.27 and 16.34 and 17.85 and 15.97 and 18.08 and 17.40
- HSPA1A—M Normalized CT Value (Delta CT) [4]: 21.03 and 20.92 and 21.32 and 20.88 and 21.99 and 20.62
- ICAM1—M Normalized CT Value (Delta CT) [4]: 18.70 and 17.80 and 18.96 and 18.10 and 18.69 and 18.08
- IFI16—M Normalized CT Value (Delta CT) [4]: 16.35 and 14.96 and 17.17 and 16.15 and 16.73 and 16.40
- IL1B_M Normalized CT Value (Delta CT) [4]: 14.33 and 13.94 and 14.24 and 13.43 and 14.32
- IL10_M Normalized CT Value (Delta CT) [4]: 25.39 and 25.60 and 25.53 and 25.18 and 25.34 and 25.45
- Normalized CT Value (Delta CT) IL1RAP_M [5]: 18.59
- Normalized CT Value (Delta CT) IL1RN—M [5]: 17.70
- Normalized CT Value (Delta CT) IL6_M [5]: 25.48
- Normalized CT Value (Delta CT) JUN_M [5]: 19.67
- Normalized CT Value (Delta CT) MEF2C—M [5]: 20.33
- Normalized CT Value (Delta CT) MMP9—M [5]: 14.45
- Normalized CT Value (Delta CT) NFKB1—M [5]: 17.29
- Normalized CT Value (Delta CT) PADI4—M [5]: 18.79
- Normalized CT Value (Delta CT) PLA2G7—M [5]: 15.21
- Normalized CT Value (Delta CT) PTPRC_M [6]: 14.30
- Normalized CT Value (Delta CT) PTX3_M [6]: 25.29
- Normalized CT Value (Delta CT) SERPINE1_M [6]: 19.63
- Normalized CT Value (Delta CT) TGFB1_M [6]: 16.04
- Normalized CT Value (Delta CT) TIMP1_M [6]: 25.27
- Normalized CT Value (Delta CT) TLR2_M [6]: 18.52
